Measurements reported in the supplement of paper PMC6045584.
± gives the standard deviation of the averaged measurements.

Columns and labels:
[1] = compound: NC1(c2ccc(-c3nc4ccn5c(=O)[nH]nc5c4cc3-c3ccccc3)cc2)CCC1 [MK2206]; experiment: surviving fraction relative to DMSO-only wells; higher = less growth inhibition; details: exposure time: 5 days
In short: (§1)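 Viability values are CellTiter-Glo luminescence readings, given as surviving fraction against the median of DMSO-only wells. The readings were taken after 10 minutes at room temperature, following five days of continuous exposure to inhibitors at 0.5, 1, 5, 10, 50, 100, 500 and 1000 nM that began 24 hours after log-phase tumour cell lines were seeded at 250–500 cells per well in 384-well plates. Every line was screened three times and kept only if replicate Pearson r >0.7 and median Z' >0.3.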

[2] = compound: CN(Cc1cnc2nc(N)nc(N)c2n1)c1ccc(C(=O)N[C@@H](CCC(=O)O)C(=O)O)cc1 [METHOTREXATE]; experiment: as above; details: exposure time: 5 days
In short: as §1

Row | Test System | surviving fraction ([1]; 0.5 nM) | surviving fraction ([1]; 1 nM) | surviving fraction ([1]; 5 nM) | surviving fraction ([1]; 10 nM) | surviving fraction ([1]; 50 nM) | surviving fraction ([1]; 100 nM) | surviving fraction ([1]; 500 nM) | surviving fraction ([1]; 1000 nM) | surviving fraction ([2]; 0.5 nM) | surviving fraction ([2]; 1 nM) | surviving fraction ([2]; 5 nM) | surviving fraction ([2]; 10 nM) | surviving fraction ([2]; 50 nM) | surviving fraction ([2]; 100 nM) | surviving fraction ([2]; 500 nM) | surviving fraction ([2]; 1000 nM)
1 | DU4475 BREAST | 1.07 ± 0.035 | 1.08 ± 0.094 | 0.989 ± 0.11 | 1 ± 0.015 | 0.828 ± 0.1 | 0.784 ± 0.019 | 0.469 ± 0.047 | 0.444 ± 0.015 | 0.815 ± 0.2 | 0.988 ± 0.11 | 0.943 ± 0.16 | 0.933 ± 0.11 | 1.02 ± 0.049 | 1.09 ± 0.092 | 1.03 ± 0.13 | 1.01 ± 0.032
2 | SJSA1 BONE | 0.752 ± 0.027 | 0.825 ± 0.033 | 0.907 ± 0.028 | 0.804 ± 0.032 | 1.66 ± 0.096 | 1.7 ± 0.048 | 1.66 ± 0.13 | 1.71 ± 0.15 | 1.62 ± 0.029 | 1.63 ± 0.05 | 1.61 ± 0.075 | 1.67 ± 0.14 | 1.7 ± 0.065 | 1.79 ± 0.12 | 1.64 ± 0.1 | 1.88 ± 0.062
3 | HCC78 LUNG | 0.785 ± 0.17 | 0.975 ± 0.05 | 1.12 ± 0.2 | 0.998 ± 0.21 | 0.848 ± 0.073 | 0.529 ± 0.13 | 0.33 ± 0.14 | 0.192 ± 0.076 | 1 ± 0.064 | 0.847 ± 0.19 | 0.914 ± 0.12 | 0.831 ± 0.13 | 0.503 ± 0.056 | 0.448 ± 0.058 | 0.421 ± 0.032 | 0.41 ± 0.039
4 | HCC1395 BREAST | 1.08 ± 0.18 | 0.985 ± 0.056 | 1.09 ± 0.16 | 1.04 ± 0.19 | 0.934 ± 0.057 | 1.1 ± 0.13 | 0.89 ± 0.082 | 0.817 ± 0.15 | 1.18 ± 0.047 | 1.08 ± 0.073 | 1.17 ± 0.035 | 1.17 ± 0.1 | 1.12 ± 0.058 | 1.26 ± 0.026 | 1.03 ± 0.16 | 1.09 ± 0.062
5 | NCIH441 LUNG | 1.08 ± 0.034 | 1.18 ± 0.017 | 1.11 ± 0.034 | 1.08 ± 0.11 | 1.01 ± 0.059 | 1.07 ± 0.041 | 1.04 ± 0.073 | 0.994 ± 0.028 | 1.15 ± 0.12 | 1.14 ± 0.099 | 1.12 ± 0.023 | 1.11 ± 0.062 | 1.04 ± 0.12 | 0.882 ± 0.067 | 0.882 ± 0.11 | 0.855 ± 0.1
6 | VCAP PROSTATE | 0.898 ± 0.12 | 0.848 ± 0.073 | 0.928 ± 0.069 | 0.936 ± 0.054 | 0.834 ± 0.13 | 0.754 ± 0.093 | 0.507 ± 0.066 | 0.362 ± 0.017 | 0.961 ± 0.06 | 0.984 ± 0.036 | 1.02 ± 0.094 | 1.07 ± 0.11 | 1.03 ± 0.079 | 1.07 ± 0.062 | 1.02 ± 0.078 | 1 ± 0.058
7 | SCC36 HEADNECK | 1.07 ± 0.037 | 1.11 ± 0.085 | 1.1 ± 0.084 | 1.18 ± 0.053 | 0.892 ± 0.025 | 0.936 ± 0.034 | 0.504 ± 0.044 | 0.378 ± 0.032 | 1.1 ± 0.11 | 1.1 ± 0.042 | 1.15 ± 0.076 | 1.16 ± 0.14 | 0.828 ± 0.022 | 0.731 ± 0.017 | 0.575 ± 0.046 | 0.626 ± 0.082
8 | SUM149 BREAST | 1.04 ± 0.049 | 1.05 ± 0.038 | 1.02 ± 0.058 | 0.997 ± 0.098 | 0.937 ± 0.036 | 0.953 ± 0.029 | 0.932 ± 0.082 | 0.872 ± 0.055 | 1.05 ± 0.075 | 1.13 ± 0.12 | 1.1 ± 0.087 | 1.06 ± 0.036 | 0.848 ± 0.074 | 0.751 ± 0.057 | 0.746 ± 0.027 | 0.781 ± 0.058
